Converted amounts (≈) assume the structure as drawn. Like-named read-outs stand apart in the source and are kept apart here.
What was measured:
Assay in all cases: In vitro MIC, broth dilution
Assay type in all cases: cell-based
P. aeruginosa GC 4532 = settings: Pseudomonas aeruginosa, GC4532
C. albicans GC 3066 = settings: Candida albicans, GC3066
E. coli GC 2203 = settings: Escherichia coli, GC2203
E. coli GC 3226 = settings: Escherichia coli, GC3226
S. marcescens GC 4077 = settings: Serratia marcescens, GC4077
CNS GC 4538 = test system: CNS GC 4538
Procedure: (§1) The minimum inhibitory concentration (MIC), the lowest concentration of the antibiotic which inhibits growth of the test organism, is determined by the broth dilution method using Muller-Hinton II […] (Baltimore Biological Laboratories) following the recommendations of National Committee for Clinical Laboratory Standards. [Reference for the Methods for dilution antimicrobial susceptibility tests for bacteria that grow aerobically: National Committee for Clinical Laboratory Standards, 1997. Approved standard M7-A National Committee for Clinical Laboratory Standards, Wayne, Pa.] An inoculum level of 5×10^5 CFU/ml, and a range of antibiotic concentrations (64-0.06 μg/ml) is used. The MIC is determined after the microtiter plates are incubated for 18 hours at 35° C. in an ambient air incubator. The test organisms comprise a spectrum of gram-positive bacteria including Staphylococcus sp., Streptococcus sp. and Enterococcus sp. These organisms include recent clinical isolates that are resistant to methicillin, penicillin and vancomycin.

S. aureus GC 4536 = settings: Staphylococcus aureus, GC4536
Procedure: as §1

E. faecalis GC 4555 = settings: Enterococcus faecalis, GC4555
Procedure: as §1

S. aureus GC 2216 = settings: Staphylococcus aureus, GC2216
Procedure: as §1

S. aureus GC 1131 = settings: Staphylococcus aureus, GC1131
Procedure: as §1

E. faecalis GC 2242 = settings: Enterococcus faecalis, GC2242
Procedure: as §1

CNS GC 4537 = test system: CNS GC 4537
Procedure: as §1

E. faecalis GC 842 = settings: Enterococcus faecalis, GC842
Procedure: as §1

CNS GC 4547 = test system: CNS GC 4547
Procedure: as §1

M. morganii GC 4531 = settings: Morganella morganii, GC4531
E. coli GC 4559 = settings: Escherichia coli, GC4559
P. aeruginosa GC 2214 = settings: Pseudomonas aeruginosa, GC2214
E. cloacae GC 3783 = settings: Enterobacter cloacae, GC3783
E. coli GC 4560 = settings: Escherichia coli, GC4560
K. pneumoniae GC 4534 = settings: Klebsiella pneumoniae, GC4534
[1] = P. aeruginosa GC 4532, read-out: MIC
[2] = C. albicans GC 3066, read-out: MIC
[3] = S. marcescens GC 4077, read-out: MIC
[4] = S. aureus GC 4536, read-out: MIC
[5] = E. faecalis GC 4555, read-out: MIC
[6] = S. aureus GC 2216, read-out: MIC
[7] = S. aureus GC 1131, read-out: MIC
[8] = E. faecalis GC 2242, read-out: MIC
[9] = E. faecalis GC 842, read-out: MIC
[10] = M. morganii GC 4531, read-out: MIC
[11] = P. aeruginosa GC 2214, read-out: MIC
[12] = E. cloacae GC 3783, read-out: MIC
[13] = K. pneumoniae GC 4534, read-out: MIC

| Structure (SMILES) | MIC (P. aeruginosa GC 4532; [1]) [µg/mL] | MIC (C. albicans GC 3066; [2]) [µg/mL] | MIC (E. coli GC 2203; E. coli GC 2203, read-out: MIC) [µg/mL] | MIC (E. coli GC 3226; E. coli GC 3226, read-out: MIC) [µg/mL] | MIC (S. marcescens GC 4077; [3]) [µg/mL] | MIC (CNS GC 4538; CNS GC 4538, read-out: MIC) [µg/mL] | MIC (S. aureus GC 4536; [4]) [µg/mL] | MIC (E. faecalis GC 4555; [5]) [µg/mL] | MIC (S. aureus GC 2216; [6]) [µg/mL] | MIC (S. aureus GC 1131; [7]) [µg/mL] | MIC (E. faecalis GC 2242; [8]) [µg/mL] | MIC (CNS GC 4537; CNS GC 4537, read-out: MIC) [µg/mL] | MIC (E. faecalis GC 842; [9]) [µg/mL] | MIC (CNS GC 4547; CNS GC 4547, read-out: MIC) [µg/mL] | MIC (M. morganii GC 4531; [10]) [µg/mL] | MIC (E. coli GC 4559; E. coli GC 4559, read-out: MIC) [µg/mL] | MIC (P. aeruginosa GC 2214; [11]) [µg/mL] | MIC (E. cloacae GC 3783; [12]) [µg/mL] | MIC (E. coli GC 4560; E. coli GC 4560, read-out: MIC) [µg/mL] | MIC (K. pneumoniae GC 4534; [13]) [µg/mL] | other results |
| --- | --- | --- | --- | --- | --- | --- | --- | --- | --- | --- | --- | --- | --- | --- | --- | --- | --- | --- | --- | --- | --- |
| CC(C)C[C@H](NC(=O)OCc1ccccc1)C(=O)NCCCN[C@H](C(=O)O)[C@@H](O)C1O[C@@H](n2ccc(=O)[nH]c2=O)[C@H](O)[C@@H]1O (stereo partly drawn) [Example 55, (5S,12S)-12-[(R)-[(3S,4R,5R)-5-(2,4-Dioxo-3,4-dihydro-1(2H)-pyrimidinyl)-3,4-dihydroxy-tetrahydro-2-furanyl](hydroxy)methyl]-5-isobutyl-3,6-dioxo-1-phenyl-2-oxa-4,7,11-triazatridecan-13-oic acid] | 128 (≈ 206 µM) | 128 (≈ 206 µM) | 128 (≈ 206 µM) | 128 (≈ 206 µM) | 128 (≈ 206 µM) | > 128 | > 128 | 128 (≈ 206 µM) | > 128 | > 128 | 128 (≈ 206 µM) | > 128 | 128 (≈ 206 µM) | > 128 | 128 (≈ 206 µM) | > 128 | 128 (≈ 206 µM) | 128 (≈ 206 µM) | 128 (≈ 206 µM) | 128 (≈ 206 µM) |  |
| COc1ccc(Cn2c(=O)ccn([C@@H]3OC([C@H](O)[C@H](NCCCNC(=O)[C@@H](NC(=O)[C@H](CCCNC(=N)N[N+](=O)O)NC(=O)N[C@H](C(=O)OCc4ccccc4)C(C)C)[C@@H](O)C(C)C)C(=O)OC(C)(C)C)[C@@H](O[Si](C)(C)C(C)(C)C)[C@H]3O[Si](C)(C)C(C)(C)C)c2=O)cc1 (stereo partly drawn) [Example 26, 1-Benzyl 17-(tert-butyl)(2S,6S,9S,16S)-16-[(R)-[(3R,4R,5R)-3,4-bis{[tert-butyl(dimethyl)silyl]oxy}-5-(3-(4-methoxybenzyl)-2,4-dioxo-3,4-dihydro-1(2H)-pyrimidinyl)tetrahydro-2-furanyl](hydroxy)methyl]-6-(3-{[(2,2-dioxido-2lambda˜1˜-diazanyl)(imino)methyl]amino}propyl)-9-[(1S)-1-hydroxy-2-methylpropyl]-2-isopropyl-4,7,10-trioxo-3,5,8,11,15-pentaazaheptadecane-1,17-dioate] |  |  |  |  |  |  |  |  |  |  |  |  |  |  |  |  |  |  |  |  | MIC (P. aeruginosa GC 4532): > 128 µg/mL; MIC (C. albicans GC 3066): > 128 µg/mL; MIC (E. coli GC 2203): > 128 µg/mL; MIC (E. coli GC 3226): > 128 µg/mL; MIC (S. marcescens GC 4077): > 128 µg/mL; MIC (CNS GC 4538): > 128 µg/mL; MIC (S. aureus GC 4536): > 128 µg/mL; MIC (E. faecalis GC 4555): > 128 µg/mL; MIC (S. aureus GC 2216): > 128 µg/mL; MIC (S. aureus GC 1131): > 128 µg/mL; MIC (E. faecalis GC 2242): 128 µg/mL; MIC (CNS GC 4537): > 128 µg/mL; MIC (E. faecalis GC 842): > 128 µg/mL; MIC (CNS GC 4547): > 128 µg/mL; MIC (M. morganii GC 4531): > 128 µg/mL; MIC (E. coli GC 4559): > 128 µg/mL; MIC (P. aeruginosa GC 2214): 128 µg/mL; MIC (E. cloacae GC 3783): > 128 µg/mL; MIC (E. coli GC 4560): > 128 µg/mL; MIC (K. pneumoniae GC 4534): > 128 µg/mL |
| COc1ccc(Cn2c(=O)ccn([C@@H]3OC([C@H](O)[C@H](NCCCNC(=O)[C@@H](NC(=O)OCc4ccccc4)[C@@H](O)C(C)C)C(=O)OC(C)(C)C)[C@@H](O[Si](C)(C)C(C)(C)C)[C@H]3O[Si](C)(C)C(C)(C)C)c2=O)cc1 (stereo partly drawn) [Example 1, tert-Butyl (5S,12S)-12-[(R)-[(3R,4R,5R)-3,4-bis{[tert-butyl(dimethyl)silyl]oxy}-5-(3-(4-methoxybenzyl)-2,4-dioxo-3,4-dihydro-1(2H)-pyrimidinyl)tetrahydro-2-furanyl](hydroxy)methyl]-5-[(1S)-1-hydroxy-2-methylpropyl]-3,6-dioxo-1-phenyl-2-oxa-4,7,11-triazatridecan-13-oate] |  |  |  |  |  |  |  |  |  |  |  |  |  |  |  |  |  |  |  |  | MIC (P. aeruginosa GC 4532): 128 µg/mL (≈ 123 µM); MIC (C. albicans GC 3066): > 128 µg/mL; MIC (E. coli GC 2203): > 128 µg/mL; MIC (E. coli GC 3226): > 128 µg/mL; MIC (S. marcescens GC 4077): > 128 µg/mL; MIC (CNS GC 4538): > 128 µg/mL; MIC (S. aureus GC 4536): > 128 µg/mL; MIC (E. faecalis GC 4555): 128 µg/mL (≈ 123 µM); MIC (S. aureus GC 2216): > 128 µg/mL; MIC (S. aureus GC 1131): > 128 µg/mL; MIC (E. faecalis GC 2242): 128 µg/mL (≈ 123 µM); MIC (CNS GC 4537): > 128 µg/mL; MIC (E. faecalis GC 842): > 128 µg/mL; MIC (CNS GC 4547): > 128 µg/mL; MIC (M. morganii GC 4531): > 128 µg/mL; MIC (E. coli GC 4559): > 128 µg/mL; MIC (P. aeruginosa GC 2214): 128 µg/mL (≈ 123 µM); MIC (E. cloacae GC 3783): > 128 µg/mL; MIC (E. coli GC 4560): > 128 µg/mL; MIC (K. pneumoniae GC 4534): > 128 µg/mL |
| COc1ccc(Cn2c(=O)ccn([C@@H]3OC([C@H](O)[C@H](NCCCNC(=O)[C@H](CC(C)C)NC(=O)OCc4ccccc4)C(=O)OC(C)(C)C)[C@@H](O[Si](C)(C)C(C)(C)C)[C@H]3O[Si](C)(C)C(C)(C)C)c2=O)cc1 (stereo partly drawn) [Example 4, tert-Butyl (5S,12S)-12-[(R)-[(3R,4R,5R)-3,4-bis{[tert-butyl(dimethyl)silyl]oxy}-5-(3-(4-methoxybenzyl)-2,4-dioxo-3,4-dihydro-1(2H)-pyrimidinyl)tetrahydro-2-furanyl](hydroxy)methyl]-5-isobutyl-3,6-dioxo-1-phenyl-2-oxa-4,7,11-triazatridecan-13-oate] | > 128 | > 128 | > 128 | > 128 | > 128 | > 128 | > 128 | > 128 | > 128 | > 128 | 128 (≈ 125 µM) | > 128 | > 128 | > 128 | > 128 | > 128 | 128 (≈ 125 µM) | > 128 | > 128 | > 128 |  |
| CCOC(=O)C(NCCCNC(=O)[C@@H](NC(=O)OCc1ccccc1)[C@@H](O)C(C)C)[C@@H](O)[C@H]1O[C@@H](n2ccc(=O)[nH]c2=O)[C@H](OC(C)=O)[C@@H]1OC(C)=O (stereo partly drawn) [Example 36, Ethyl (5S)-12-[(R)-[(2R,3R,4R,5R)-3,4-bis(acetyloxy)-5-(2,4-dioxo-3,4-dihydro-1(2H)-pyrimidinyl)tetrahydro-2-furanyl](hydroxy)methyl]-5-[(1S)-1-hydroxy-2-methylpropyl]-3,6-dioxo-1-phenyl-2-oxa-4,7,11-triazatridecan-13-oate] | 128 (≈ 171 µM) | 128 (≈ 171 µM) | > 128 | > 128 | > 128 | > 128 | > 128 | > 128 | > 128 | > 128 | 128 (≈ 171 µM) | > 128 | > 128 | > 128 | 128 (≈ 171 µM) | > 128 | 128 (≈ 171 µM) | > 128 | > 128 | > 128 |  |
| COc1ccc(Cn2c(=O)ccn([C@@H]3OC([C@H](O)[C@H](NCCCNC(=O)[C@@H](N)Cc4ccccc4)C(=O)OC(C)(C)C)[C@@H](O[Si](C)(C)C(C)(C)C)[C@H]3O[Si](C)(C)C(C)(C)C)c2=O)cc1 (stereo partly drawn) [Example 13, tert-Butyl (2S,3R)-2-[(3-{[(2S)-2-amino-3-phenylpropanoyl]amino}propyl)amino]-3-[(3R,4R,5R)-3,4-bis{[tert-butyl(dimethyl)silyl]oxy}-5-(3-(4-methoxybenzyl)-2,4-dioxo-3,4-dihydro-1(2H)-pyrimidinyl)tetrahydro-2-furanyl]-3-hydroxypropanoate] | > 128 | > 128 | > 128 | > 128 | > 128 | > 128 | > 128 | > 128 | > 128 | > 128 | 16 (≈ 17.3 µM) | > 128 | 128 (≈ 138 µM) | > 128 | > 128 | > 128 | > 128 | > 128 | > 128 | > 128 |  |

— patent publication US6858591B2, “Antibiotic AA 896 analogs” (Wyeth Holdings Corporation, priority 2001, dated 2005)
